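48-hour exposure; five concentrations; linearly interpolated endpoints. GI50 marks 50% less growth.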 Active and inactive are the calls of the source. No stated cut-off is given here; in the data, active = GI50 up to about 1.1 µM and inactive = higher.
How the values were obtained:
Experiment in all cases: NCI tumour cell line growth inhibition, 48 h
[1] = test system: UACC-62
[2] = test system: KM12
[3] = test system: UACC-257
[4] = test system: HCT-116
[5] = test system: SK-MEL-2
[6] = test system: SF-539
[7] = test system: UO-31
[8] = test system: LOX IMVI
[9] = test system: SK-MEL-28
[10] = test system: K562
[11] = test system: U-251
[12] = test system: KM-20L2
[13] = test system: HT-29
[14] = test system: HCC 2998
[15] = test system: MCF7
[16] = test system: OVCAR-5
[17] = test system: MDA-MB-435
[18] = test system: SR
[19] = test system: BT-549
[20] = test system: DU-145

| SMILES | GI50 [1] | GI50 [2] | GI50 [3] | GI50 [4] | GI50 [5] | GI50 [6] | GI50 [7] | GI50 [8] | GI50 [9] | GI50 [10] | GI50 [11] | GI50 [12] | GI50 [13] | GI50 [14] | GI50 [15] | GI50 [16] | GI50 [17] | GI50 [18] | GI50 [19] | GI50 [20] |
| --- | --- | --- | --- | --- | --- | --- | --- | --- | --- | --- | --- | --- | --- | --- | --- | --- | --- | --- | --- | --- |
| O=c1ccn([C@@H]2C[C@H](CO)C[S+]([O-])C2)c(=O)[nH]1 (some centres undefined) | > 100 µM (inactive) | > 100 µM (inactive) | > 100 µM (inactive) | > 100 µM (inactive) | > 100 µM (inactive) | > 100 µM (inactive) | > 100 µM (inactive) | > 100 µM (inactive) | > 100 µM (inactive) | > 100 µM (inactive) | > 100 µM (inactive) | > 100 µM (inactive) | > 100 µM (inactive) | > 100 µM (inactive) |  |  |  |  |  |  |
| O=C1CSC2(CC(/C=C/c3cccs3)=NN2c2cccc(S(=O)(=O)O)c2)N1c1nc2ccccc2s1 (centres undefined) | 49.4 µM (inactive) | > 100 µM (inactive) | > 100 µM (inactive) | > 100 µM (inactive) | > 100 µM (inactive) | > 100 µM (inactive) | 83.6 µM (inactive) | 48.4 µM (inactive) | > 100 µM (inactive) | 49.4 µM (inactive) | 65.6 µM (inactive) |  | > 100 µM (inactive) | > 100 µM (inactive) | 54.1 µM (inactive) | > 100 µM (inactive) | 72.4 µM (inactive) | 30.2 µM (inactive) | 11.9 µM (inactive) | > 100 µM (inactive) |
| COc1ccc(/C=C/C=C2C(=O)NC(=S)NC2=O)cc1 | 3.07 µM (inactive) | 8.79 µM (inactive) | 9.62 µM (inactive) | 4.7 µM (inactive) | 16.1 µM (inactive) | 4.41 µM (inactive) | 7.45 µM (inactive) | 1.89 µM (inactive) | 1.76 µM (inactive) | 2.21 µM (inactive) | 2.16 µM (inactive) |  | 5.77 µM (inactive) | 8.15 µM (inactive) | 7.74 µM (inactive) | 21 µM (inactive) | 2.59 µM (inactive) | 1.35 µM (inactive) | 2.05 µM (inactive) | 6.03 µM (inactive) |
| Cn1c2ccccc2c(=NNc2ccc(S(N)(=O)=O)cc2)c2ccccc21 | 14.7 µM (inactive) | 11.2 µM (inactive) | 17.1 µM (inactive) | 16.7 µM (inactive) | 10.5 µM (inactive) | 22.5 µM (inactive) | 10.7 µM (inactive) | 9.29 µM (inactive) | 18.6 µM (inactive) | 2.49 µM (inactive) | 19 µM (inactive) |  | 17.6 µM (inactive) | 14.9 µM (inactive) | 13.6 µM (inactive) | 24.4 µM (inactive) | 16.2 µM (inactive) | 8.81 µM (inactive) | 8.39 µM (inactive) | 21.6 µM (inactive) |
| CC[C@]1(Cc2ccc(OC)c(OC)c2)C=[N+]([O-])O[C@H](OC2CCCC2(c2ccccc2)c2ccccc2)[C@@H]1OC(=O)c1ccccc1 (some centres undefined) | 8.67 µM (inactive) | 3.9 µM (inactive) | 14 µM (inactive) | 4.51 µM (inactive) | 8 µM (inactive) | > 100 µM (inactive) | 6.7 µM (inactive) | 3.6 µM (inactive) | 20.8 µM (inactive) | 3.94 µM (inactive) | 42.1 µM (inactive) |  | 3.57 µM (inactive) | 9.71 µM (inactive) | 3.38 µM (inactive) | 22.3 µM (inactive) | 3.73 µM (inactive) | 3.1 µM (inactive) | > 27.1 µM (inactive) | 10.6 µM (inactive) |
| CCOC(=O)/C(C(=O)c1ccc[nH]1)=C1/CCCN1C | > 100 µM (inactive) | > 100 µM (inactive) | > 100 µM (inactive) | > 100 µM (inactive) | > 100 µM (inactive) | > 100 µM (inactive) | > 100 µM (inactive) | > 100 µM (inactive) | > 100 µM (inactive) | > 100 µM (inactive) | > 100 µM (inactive) |  | > 100 µM (inactive) | > 100 µM (inactive) | > 100 µM (inactive) | > 100 µM (inactive) | > 100 µM (inactive) | > 100 µM (inactive) | > 100 µM (inactive) | > 100 µM (inactive) |
| CC1(C)C(c2ccccc2)=NN(O)c2ccccc21 | > 100 µM (inactive) | > 100 µM (inactive) | > 100 µM (inactive) | > 100 µM (inactive) | > 100 µM (inactive) | > 100 µM (inactive) |  |  | > 100 µM (inactive) | > 100 µM (inactive) | > 100 µM (inactive) | > 100 µM (inactive) | > 100 µM (inactive) | > 100 µM (inactive) |  | > 100 µM (inactive) |  |  |  |  |
| CCCCCCCCCC[C@@H](O)[C@H]1CC[C@H]([C@H]2CC[C@H]([C@H](O)CCCCCCCCCC[C@@H]3CC(CC(C)=O)C(=O)O3)O2)O1 (some centres undefined) | 1.11 µM (active) | 15.8 µM (inactive) | 0.914 µM (active) | 0.112 µM (active) | > 40.9 µM (inactive) | 17.3 µM (inactive) | 23.7 µM (inactive) | 1.12 µM (inactive) | > 50 µM (inactive) | 0.374 µM (active) | > 50 µM (inactive) |  | 4.41 µM (inactive) | 41.3 µM (inactive) | 13.8 µM (inactive) | > 50 µM (inactive) | > 39.1 µM (inactive) | 0.562 µM (active) | 46.2 µM (inactive) | > 50 µM (inactive) |
| COc1cc2oc3cc(=O)cc4oc(-c5ccccc5)cc(c2c2c1CCC(c1ccccc1)O2)c43 (centres undefined) | 35.1 µM (inactive) | 17 µM (inactive) | 26.7 µM (inactive) | 29.2 µM (inactive) | 33 µM (inactive) | 24.5 µM (inactive) | 55.6 µM (inactive) | 31.9 µM (inactive) | 40.7 µM (inactive) | 33 µM (inactive) | 43.1 µM (inactive) |  | 20.9 µM (inactive) | 34.2 µM (inactive) | 7.66 µM (inactive) | 56 µM (inactive) | 22.7 µM (inactive) | 11.1 µM (inactive) | 80.5 µM (inactive) | 24.3 µM (inactive) |
| S=C(Nc1ccccc1)N(Cc1ccccc1)c1ccccc1 | 21.6 µM (inactive) | 21.2 µM (inactive) | 22.4 µM (inactive) | 40.1 µM (inactive) | 17.3 µM (inactive) | 17.7 µM (inactive) | 29.3 µM (inactive) | 33 µM (inactive) | 17.4 µM (inactive) | 29.7 µM (inactive) | 42.6 µM (inactive) |  | 22.5 µM (inactive) | > 100 µM (inactive) | 33.7 µM (inactive) | > 100 µM (inactive) | 20.3 µM (inactive) | 20.5 µM (inactive) | 0.34 µM (active) | 6.75 µM (inactive) |
| Cc1cc(/N=C/c2ccc(C#N)cc2)n(-c2ccccc2)n1 | 80.4 µM (inactive) | 56.1 µM (inactive) | > 100 µM (inactive) | 49.1 µM (inactive) | > 100 µM (inactive) | 99.3 µM (inactive) | > 100 µM (inactive) | 63.4 µM (inactive) | > 100 µM (inactive) | 26.5 µM (inactive) | 71.6 µM (inactive) |  | 47.8 µM (inactive) | > 100 µM (inactive) | 41.1 µM (inactive) | > 100 µM (inactive) | 37 µM (inactive) | 35.5 µM (inactive) | 93.3 µM (inactive) | > 100 µM (inactive) |
| O=C1NNC(=O)c2ccccc2SSc2ccccc2C(=O)NNC(=O)c2ccccc2SSc2ccccc21 | 16.7 µM (inactive) | 22.5 µM (inactive) | 19.9 µM (inactive) | 7.76 µM (inactive) | 26.8 µM (inactive) | 17.3 µM (inactive) | 3.39 µM (inactive) | 12 µM (inactive) | 45.5 µM (inactive) | 12.9 µM (inactive) | 17.3 µM (inactive) |  | 16.7 µM (inactive) | > 100 µM (inactive) | 6.05 µM (inactive) | 16.9 µM (inactive) | 39 µM (inactive) | 2.55 µM (inactive) | 11.5 µM (inactive) | 21.4 µM (inactive) |
| O=C1c2ccccc2C(=O)c2c(NC(=O)C(Cl)CCl)cccc21 (centres undefined) | 10.1 µM (inactive) | 2.58 µM (inactive) | 14.7 µM (inactive) | 10.9 µM (inactive) | 5.09 µM (inactive) | 4.83 µM (inactive) | 10.6 µM (inactive) | 2.44 µM (inactive) | 17.2 µM (inactive) | 0.197 µM (active) | 3.33 µM (inactive) |  | 3.05 µM (inactive) | 13.6 µM (inactive) | 0.785 µM (active) | 15.6 µM (inactive) | 7.11 µM (inactive) | < 0.01 µM (active) | 17.1 µM (inactive) | 7.38 µM (inactive) |
| CC1CCN(CC(=O)N2c3ccccc3Sc3cc4ccccc4cc32)CC1 | > 100 µM (inactive) | 51.9 µM (inactive) | > 100 µM (inactive) | 49.7 µM (inactive) | > 100 µM (inactive) | > 100 µM (inactive) | > 100 µM (inactive) | > 100 µM (inactive) | > 100 µM (inactive) | > 100 µM (inactive) | > 100 µM (inactive) |  | 48 µM (inactive) | 67.6 µM (inactive) | 47.5 µM (inactive) | > 100 µM (inactive) | > 100 µM (inactive) | 54.6 µM (inactive) | > 100 µM (inactive) | > 100 µM (inactive) |
| N#CC(c1ccccc1)(c1ccccc1)[C@@H](c1ccccc1)[C@H](Cc1ccccc1)NS(=O)(=O)c1ccccc1 | > 100 µM (inactive) | > 100 µM (inactive) | > 100 µM (inactive) | > 100 µM (inactive) | > 100 µM (inactive) | > 100 µM (inactive) | > 100 µM (inactive) | > 100 µM (inactive) | > 100 µM (inactive) | > 100 µM (inactive) | > 100 µM (inactive) |  | > 100 µM (inactive) | > 100 µM (inactive) | > 100 µM (inactive) | > 100 µM (inactive) | > 100 µM (inactive) | 83.9 µM (inactive) | > 100 µM (inactive) | > 100 µM (inactive) |

— ChEMBL document CHEMBL1201862, “PubChem BioAssay data set” (2004)
